Laboratory results from the supplement of paper PMC10307832.

Assays:
Assay in all cases: relative viability (nuclei count vs DMSO), 5 days (fraction); higher = more cells survive
[1] = system: COR-L23
Procedure, shortened: (§1)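 After 5 days of treatment, lung cancer cells in 1536-well plates were fixed and stained in a single step (final 0.05% Triton X-100, 1% formaldehyde, 1 ug/ml Hoechst) and their nuclei counted on 4× images. Treatment had been applied by pin tool the day after seeding as one drug alone or as a fixed anchor-drug dose with five library-drug doses (not always all listed) in √10 steps. Relative viability is the nuclei count of treated wells divided by that of vehicle wells, and values are medians of duplicate plates.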

[2] = system: A-427
Procedure, shortened: as §1

[3] = system: SW 1573
Procedure, shortened: as §1

[4] = system: PC-14
Procedure, shortened: as §1

[5] = system: NCI-H1793
Procedure, shortened: as §1

[6] = system: HCC-44
Procedure, shortened: as §1

[7] = system: NCI-H1563
Procedure, shortened: as §1

[8] = system: NCI-H2347
Procedure, shortened: as §1

[9] = system: H3255
Procedure, shortened: as §1

[10] = system: PC-3 [JPC-3]
Procedure, shortened: as §1

[11] = system: 201T
Procedure, shortened: as §1

[12] = system: NCI-H727
Procedure, shortened: as §1

[13] = system: NCI-H650
Procedure, shortened: as §1

[14] = system: NCI-H838
Procedure, shortened: as §1

[15] = system: LK-2
Procedure, shortened: as §1

[16] = system: NCI-H1650
Procedure, shortened: as §1

[17] = system: LCLC-103H
Procedure, shortened: as §1

[18] = system: LU99A
Procedure, shortened: as §1

[19] = system: LCLC-97TM1
Procedure, shortened: as §1

[20] = system: NCI-H23
Procedure, shortened: as §1

[21] = system: NCI-H1944
Procedure, shortened: as §1

[22] = system: NCI-H460
Procedure, shortened: as §1

[23] = system: SW 900
Procedure, shortened: as §1

Question: For `C=C1C(=O)O[C@@H](CCCCCCCC)[C@@H]1C(=O)O` [C-75] + COc1cccc2cc(-c3nc([C@H]4CC[C@H](C(=O)O)CC4)n4ncnc(N)c34)[nH]c12 [OSI-027] (partner 0.5 µM), which relative viability ([1]; first compound 0.08 µM) is on record?
Answer: 0.74

Question: And the relative viability ([1]; first compound 0.253 µM)?
Answer: 0.886

Question: And the relative viability ([1]; first compound 0.8 µM)?
Answer: 0.767

Question: What about the relative viability ([1]; first compound 2.53 µM) of the same compound?
Answer: 0.676

Question: And the relative viability ([1]; first compound 8 µM)?
Answer: 0.701

Question: And the relative viability ([2]; first compound 0.08 µM)?
Answer: 0.516

Question: And the relative viability ([2]; first compound 0.253 µM)?
Answer: 0.51

Question: What about the relative viability ([2]; first compound 0.8 µM) of the same compound?
Answer: 0.488

Question: What about the relative viability ([2]; first compound 2.53 µM) of the same compound?
Answer: 0.439

Question: What about the relative viability ([2]; first compound 8 µM) of the same compound?
Answer: 0.39

Question: And the relative viability ([3]; first compound 0.08 µM)?
Answer: 0.705

Question: What about the relative viability ([3]; first compound 0.253 µM) of the same compound?
Answer: 0.709

Question: What about the relative viability ([3]; first compound 0.8 µM) of the same compound?
Answer: 0.555

Question: And the relative viability ([3]; first compound 2.53 µM)?
Answer: 0.634

Question: What about the relative viability ([3]; first compound 8 µM) of the same compound?
Answer: 0.519

Question: And the relative viability ([4]; first compound 0.08 µM)?
Answer: 0.774

Question: And the relative viability ([4]; first compound 0.253 µM)?
Answer: 0.958

Question: What about the relative viability ([4]; first compound 0.8 µM) of the same compound?
Answer: 0.687

Question: And the relative viability ([4]; first compound 2.53 µM)?
Answer: 0.767

Question: And the relative viability ([4]; first compound 8 µM)?
Answer: 0.856

Question: What about the relative viability ([5]; first compound 0.08 µM) of the same compound?
Answer: 0.337

Question: And the relative viability ([5]; first compound 0.253 µM)?
Answer: 0.284

Question: What about the relative viability ([5]; first compound 0.8 µM) of the same compound?
Answer: 0.241

Question: And the relative viability ([5]; first compound 2.53 µM)?
Answer: 0.224

Question: And the relative viability ([5]; first compound 8 µM)?
Answer: 0.342

Question: What about the relative viability ([6]; first compound 0.08 µM) of the same compound?
Answer: 0.675

Question: And the relative viability ([6]; first compound 0.253 µM)?
Answer: 0.428

Question: And the relative viability ([6]; first compound 0.8 µM)?
Answer: 0.463

Question: And the relative viability ([6]; first compound 2.53 µM)?
Answer: 0.353

Question: And the relative viability ([6]; first compound 8 µM)?
Answer: 0.404

Question: And the relative viability ([7]; first compound 0.08 µM)?
Answer: 0.806

Question: What about the relative viability ([7]; first compound 0.253 µM) of the same compound?
Answer: 0.856

Question: What about the relative viability ([7]; first compound 0.8 µM) of the same compound?
Answer: 0.791

Question: What about the relative viability ([7]; first compound 2.53 µM) of the same compound?
Answer: 0.718

Question: What about the relative viability ([7]; first compound 8 µM) of the same compound?
Answer: 0.79

Question: What about the relative viability ([8]; first compound 0.08 µM) of the same compound?
Answer: 0.408

Question: And the relative viability ([8]; first compound 0.253 µM)?
Answer: 0.523

Question: What about the relative viability ([8]; first compound 0.8 µM) of the same compound?
Answer: 0.44

Question: And the relative viability ([8]; first compound 8 µM)?
Answer: 0.478

Question: What about the relative viability ([9]; first compound 0.08 µM) of the same compound?
Answer: 0.589

Question: And the relative viability ([9]; first compound 0.253 µM)?
Answer: 0.7

Question: And the relative viability ([9]; first compound 0.8 µM)?
Answer: 0.481

Question: And the relative viability ([9]; first compound 2.53 µM)?
Answer: 0.562

Question: What about the relative viability ([9]; first compound 8 µM) of the same compound?
Answer: 0.633

Question: What about the relative viability ([10]; first compound 0.08 µM) of the same compound?
Answer: 0.772

Question: What about the relative viability ([10]; first compound 0.253 µM) of the same compound?
Answer: 0.806

Question: What about the relative viability ([10]; first compound 0.8 µM) of the same compound?
Answer: 0.736

Question: And the relative viability ([10]; first compound 2.53 µM)?
Answer: 0.668

Question: And the relative viability ([10]; first compound 8 µM)?
Answer: 0.749

Question: What about the relative viability ([11]; first compound 0.08 µM) of the same compound?
Answer: 0.734

Question: What about the relative viability ([11]; first compound 0.253 µM) of the same compound?
Answer: 0.866

Question: And the relative viability ([11]; first compound 0.8 µM)?
Answer: 0.698

Question: And the relative viability ([11]; first compound 8 µM)?
Answer: 0.734

Question: What about the relative viability ([12]; first compound 0.08 µM) of the same compound?
Answer: 0.893

Question: What about the relative viability ([12]; first compound 0.253 µM) of the same compound?
Answer: 0.894

Question: And the relative viability ([12]; first compound 0.8 µM)?
Answer: 0.575

Question: What about the relative viability ([12]; first compound 8 µM) of the same compound?
Answer: 0.98

Question: What about the relative viability ([13]; first compound 0.08 µM) of the same compound?
Answer: 0.611

Question: What about the relative viability ([13]; first compound 0.253 µM) of the same compound?
Answer: 0.401

Question: What about the relative viability ([13]; first compound 0.8 µM) of the same compound?
Answer: 0.494

Question: What about the relative viability ([13]; first compound 2.53 µM) of the same compound?
Answer: 0.448

Question: And the relative viability ([13]; first compound 8 µM)?
Answer: 0.524

Question: And the relative viability ([14]; first compound 0.08 µM)?
Answer: 0.442

Question: And the relative viability ([14]; first compound 0.8 µM)?
Answer: 0.37

Question: What about the relative viability ([14]; first compound 2.53 µM) of the same compound?
Answer: 0.36

Question: What about the relative viability ([14]; first compound 8 µM) of the same compound?
Answer: 0.404

Question: What about the relative viability ([15]; first compound 0.08 µM) of the same compound?
Answer: 0.209

Question: What about the relative viability ([15]; first compound 0.253 µM) of the same compound?
Answer: 0.212

Question: And the relative viability ([15]; first compound 0.8 µM)?
Answer: 0.222

Question: What about the relative viability ([15]; first compound 2.53 µM) of the same compound?
Answer: 0.16

Question: What about the relative viability ([15]; first compound 8 µM) of the same compound?
Answer: 0.145

Question: And the relative viability ([16]; first compound 0.08 µM)?
Answer: 0.743

Question: What about the relative viability ([16]; first compound 0.253 µM) of the same compound?
Answer: 0.856

Question: What about the relative viability ([16]; first compound 2.53 µM) of the same compound?
Answer: 0.442

Question: What about the relative viability ([16]; first compound 8 µM) of the same compound?
Answer: 0.851

Question: What about the relative viability ([17]; first compound 0.08 µM) of the same compound?
Answer: 0.471

Question: And the relative viability ([17]; first compound 0.253 µM)?
Answer: 0.495

Question: What about the relative viability ([17]; first compound 0.8 µM) of the same compound?
Answer: 0.432

Question: What about the relative viability ([17]; first compound 2.53 µM) of the same compound?
Answer: 0.337

Question: And the relative viability ([17]; first compound 8 µM)?
Answer: 0.472

Question: And the relative viability ([18]; first compound 0.08 µM)?
Answer: 0.328

Question: What about the relative viability ([18]; first compound 0.253 µM) of the same compound?
Answer: 0.28

Question: And the relative viability ([18]; first compound 0.8 µM)?
Answer: 0.273

Question: And the relative viability ([18]; first compound 2.53 µM)?
Answer: 0.252

Question: What about the relative viability ([18]; first compound 8 µM) of the same compound?
Answer: 0.325

Question: And the relative viability ([19]; first compound 0.08 µM)?
Answer: 0.554

Question: And the relative viability ([19]; first compound 0.253 µM)?
Answer: 0.636

Question: What about the relative viability ([19]; first compound 0.8 µM) of the same compound?
Answer: 0.543

Question: What about the relative viability ([19]; first compound 2.53 µM) of the same compound?
Answer: 0.192

Question: And the relative viability ([19]; first compound 8 µM)?
Answer: 0.479

Question: And the relative viability ([20]; first compound 0.08 µM)?
Answer: 0.742

Question: What about the relative viability ([20]; first compound 0.253 µM) of the same compound?
Answer: 0.698

Question: And the relative viability ([20]; first compound 0.8 µM)?
Answer: 0.575

Question: What about the relative viability ([20]; first compound 2.53 µM) of the same compound?
Answer: 0.375

Question: What about the relative viability ([20]; first compound 8 µM) of the same compound?
Answer: 0.448

Question: And the relative viability ([21]; first compound 0.08 µM)?
Answer: 0.441

Question: And the relative viability ([21]; first compound 0.253 µM)?
Answer: 0.426

Question: And the relative viability ([21]; first compound 0.8 µM)?
Answer: 0.392

Question: What about the relative viability ([21]; first compound 8 µM) of the same compound?
Answer: 0.448

Question: What about the relative viability ([22]; first compound 0.08 µM) of the same compound?
Answer: 0.664

Question: What about the relative viability ([22]; first compound 0.253 µM) of the same compound?
Answer: 0.751

Question: What about the relative viability ([22]; first compound 0.8 µM) of the same compound?
Answer: 0.59

Question: And the relative viability ([22]; first compound 8 µM)?
Answer: 0.527

Question: What about the relative viability ([23]; first compound 0.08 µM) of the same compound?
Answer: 0.555

Question: And the relative viability ([23]; first compound 0.253 µM)?
Answer: 0.842

Question: And the relative viability ([23]; first compound 0.8 µM)?
Answer: 0.441

Question: What about the relative viability ([23]; first compound 2.53 µM) of the same compound?
Answer: 0.509

Question: And the relative viability ([23]; first compound 8 µM)?
Answer: 0.45
